Experiments:
E. coli (Ec) = assay: Broth microdilution minimum inhibitory concentration (MIC); assay type: cell-based; settings: Escherichia coli, E. coli; growth medium supplemented with sodium bicarbonate; read-out: E. coli + bicarb MIC
Summary of the method: (§1)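 Two-fold compound series, 8 points in triplicate; medium CAMHB ± NaHCO3 (6.25 or 25 mM final) or ± 0–50% heat-inactivated human serum; inoculum 5×10^4 CFU/well; growth-method 0.5 McFarland suspensions; modified CLSI M07-A9.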

A. baumannii (Ab) = assay: as above; assay type: cell-based; settings: Acinetobacter baumannii; A. baumannii; growth medium supplemented with sodium bicarbonate; read-out: Ab + bicarb MIC
Summary of the method: as §1

S. aureus (Sa) = assay: as above; assay type: cell-based; settings: Staphylococcus aureus, S. aureus; growth medium supplemented with sodium bicarbonate; read-out: Sa + bicarb MIC
Summary of the method: as §1

E. faecalis (Ef) = assay: as above; assay type: cell-based; settings: Enterococcus faecalis, E. faecalis; growth medium supplemented with sodium bicarbonate; read-out: Ef + bicarb MIC
Summary of the method: as §1

P. aeruginosa (Pa) = assay: as above; assay type: cell-based; settings: Pseudomonas aeruginosa, P. aeruginosa; growth medium supplemented with sodium bicarbonate; read-out: Pa MIC + bicarb
Summary of the method: as §1

[1] = biological target: Rabbit Reticulocyte Lysate (eukaryotic protein synthesis); assay: Rabbit reticulocyte lysate luciferase assay (inhibition of eukaryotic protein synthesis); assay type: biochemical; settings: class by IC50 or % inhibition @ 1 μM, read-out: Rabbit reticulocyte IC50 (μM/% inhib.)
Summary of the method: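 Compounds were tested in 8-point 2-fold dilution series for blocking luciferase synthesis in nuclease-treated rabbit reticulocyte lysate (30° C., 90 minutes). Luminescence read-out, corrected by no-RNA background, was expressed as % inhibition against water-only reactions.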

[2] = tested on: E. coli S30 extract (bacterial protein synthesis); assay: E. coli S30 extract coupled transcription-translation luciferase assay (inhibition of bacterial protein synthesis); assay type: biochemical; settings: class by IC50 or % inhibition @ 1 μM, read-out: S30 IC50 (μM/% inhib.)
Summary of the method: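 Luminescent read-out of luciferase made from pBESTluc DNA by E. coli S30 extract after 1 h at 37 °C with compound in an 8-point 2-fold series. Background came from no-DNA reactions. Percent inhibition was calculated against water-only controls.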

| Structure (SMILES) | MIC (E. coli (Ec)) | MIC (A. baumannii (Ab)) | MIC (S. aureus (Sa)) | MIC (E. faecalis (Ef)) | MIC (P. aeruginosa (Pa)) | IC50 [1] | IC50 [2] |
| --- | --- | --- | --- | --- | --- | --- | --- |
| CNC1CCCN(CCc2ccc(-n3ccc(NC(=O)N4CCN(C(=O)C(C)(C)N)CC4)nc3=O)cc2)CC1 (centres unmarked) [Compound 33] | < 8 µg/mL | > 32 µg/mL | 8 to 32 µg/mL | > 32 µg/mL | > 32 µg/mL | > 1 µM | 0.5 to 1 µM |
| CC(N)C1CCN(CCc2cccc(-n3ccc(NC(=O)N4CCN(C(=O)C(C)(C)N)CC4)nc3=O)c2)CC1 (centres unmarked) [Compound 34] | < 8 µg/mL | > 32 µg/mL | < 8 µg/mL | < 8 µg/mL | > 32 µg/mL | > 1 µM | < 0.5 µM |
| C[C@@](N)(CO)C(=O)N1CCN(C(=O)Nc2ccn(-c3ccc(CCN4CCCC(N)CC4)cc3)c(=O)n2)CC1 (some centres unmarked) [Compound 35] | < 8 µg/mL | > 32 µg/mL | < 8 µg/mL | < 8 µg/mL | 8 to 32 µg/mL | > 1 µM | > 1 µM |
| CC(C)(N)C(=O)N1CCN(C(=O)Nc2ccn(-c3ccc(CN4CCC(N)CC4)cc3)c(=O)n2)CC1 [Compound 57] | < 8 µg/mL | > 32 µg/mL | < 8 µg/mL | 8 to 32 µg/mL | > 32 µg/mL | > 1 µM | < 0.5 µM |
| C[C@@H]1CN(C(=O)C(C)(C)N)CCN1C(=O)Nc1ccn(-c2ccc(CN3CCC(N)CC3)cc2)c(=O)n1 [Compound 61] | < 8 µg/mL | > 32 µg/mL | < 8 µg/mL | 8 to 32 µg/mL | > 32 µg/mL | > 1 µM | < 0.5 µM |
| CC(C)(N)C(=O)N1CCN(C(=O)Nc2ccn(-c3ccc(CN4CCC(N)CC4)cc3)c(=O)n2)C(CO)C1 (centres unmarked) [Compound 62] | < 8 µg/mL | > 32 µg/mL | > 32 µg/mL | > 32 µg/mL | > 32 µg/mL | > 1 µM | < 0.5 µM |
| CC(N)C1CCN(Cc2ccc(-n3ccc(NC(=O)N4CCN(C(=O)[C@@](C)(N)CO)[C@H](C)C4)nc3=O)cc2)CC1 (some centres unmarked) [Compound 70] | < 8 µg/mL | > 32 µg/mL | < 8 µg/mL | < 8 µg/mL | > 32 µg/mL | > 1 µM | < 0.5 µM |
| C[C@@H]1CN(C(=O)Nc2ccn(-c3ccc(CCN4CCCC(N)CC4)cc3)c(=O)n2)CCN1C(=O)C(C)(C)N (some centres unmarked) [Compound 71] | < 8 µg/mL | < 8 µg/mL | < 8 µg/mL | < 8 µg/mL | 8 to 32 µg/mL | > 1 µM | < 0.5 µM |
| C[C@@H]1CN(C(=O)Nc2ccn(-c3ccc(CN4CCC(N)CC4)cc3)c(=O)n2)CCN1C(=O)C(C)(C)N [Compound 79] | < 8 µg/mL | > 32 µg/mL | < 8 µg/mL | 8 to 32 µg/mL | > 32 µg/mL | > 1 µM | < 0.5 µM |
| C[C@@H]1CN(C(=O)C(C)(C)N)CCN1C(=O)Nc1ccn(-c2ccc(CN3CCC(CN)CC3)cc2)c(=O)n1 [Compound 82] | < 8 µg/mL | 8 to 32 µg/mL | < 8 µg/mL | < 8 µg/mL | > 32 µg/mL | > 1 µM | < 0.5 µM |
| C[C@@H]1CN(C(=O)C(C)(C)N)CCN1C(=O)Nc1ccn(-c2ccc(CCN3CCCC(N)CC3)cc2)c(=O)n1 (some centres unmarked) [Compound 90] | < 8 µg/mL | < 8 µg/mL | < 8 µg/mL | < 8 µg/mL | > 32 µg/mL | > 1 µM | < 0.5 µM |
| CC(N)C1CCN(Cc2ccc(-n3ccc(NC(=O)N4CCN(C(=O)C(C)(C)N)CC4)nc3=O)cn2)CC1 (centres unmarked) [Compound 95] | < 8 µg/mL | > 32 µg/mL | 8 to 32 µg/mL | > 32 µg/mL | > 32 µg/mL | > 1 µM | < 0.5 µM |
| CCC(N)C1CCCN(Cc2ccc(-n3ccc(NC(=O)N4CCN(C(=O)C(C)(C)N)CC4)nc3=O)cc2)C1 (centres unmarked) [Compound 110] | < 8 µg/mL | > 32 µg/mL | < 8 µg/mL | 8 to 32 µg/mL | > 32 µg/mL | > 1 µM | < 0.5 µM |
| CN(Cc1ccc(-n2ccc(NC(=O)N3CCN(C(=O)C(C)(C)N)CC3)nc2=O)cc1)CC1CNC1 [Compound 111] | 8 to 32 µg/mL | > 32 µg/mL | 8 to 32 µg/mL | > 32 µg/mL | > 32 µg/mL | > 1 µM | 0.5 to 1 µM |

Source: patent publication US12503452B2 (Curza Global, LLC, priority 2019, dated 2025)
